The values that follow come from patent EP3822637A1, “METHOD FOR DETERMINING PARP INHIBITOR RESPONSIVENESS AND IMPROVING PARP INHIBITOR THERAPY” (Universität Zürich, priority 2019, dated 2021).

The target of assay [1] is T1, TRIP12 (Homo sapiens, UniProt Q14669).
T1 construct: The full-length TRIP12 (TRIP12-203, transcript ENST 00000389044.8) was cloned into the pAc-GFP1-C1 (Clontech) vector; expressed in transfected cells
The assay is described as follows: In vitro ubiquitin ligase activity assay (TRIP12 auto-ubiquitylation, with and without PAR chains). It is filed as biochemical. The settings on record: absence and presence of PAR chains; Fig. 16a. How it is done:
HEK293T cells were transfected with plasmids encoding FLAG-TRIP12 WT or the point mutants R869A or C2034A. Cells were lysed in TNE buffer (50 mM Tris-HCI pH 8.0, 150 mM NaCl, 0,1% Igepal CA630, 1 mM EDTA) supplemented with 2 mM MgCl2, cOmplete inhibitor cocktail (Roche), phosphoSTOP (Roche) and 25 U/ml benzonase. One milligram of protein lysates was immunoprecipitated using protein G- sepharose (GE Heltcare) coupled to 1 µl of anti-FLAG antibody for 3 hours at 4°C. After four washes with IP buffer the beads were first equilibrated in TE buffer (50 mM Tris-HCI pH 8.0, 150 mM NaCl) supplemented with cOmplete inhibitor cocktail (Roche), 1 mM PMSF, and then re-suspended in 5 volumes of TE buffer with 0.3 mg/ml FLAG peptide (3x FLAG peptide, Sigma) for 1 hour at 4°C at low rpm. Samples were then centrifuged at 100 x g for two minutes and the supernatant containing the eluted protein was stored at -80°C.
Auto-PARylated PARP1 was bound to histidine beads (ProBond) for 45 minutes at 4°C. The beads were then equilibrated in reaction buffer (25 mM Tris-HCI pH 7.4, 100 mM NaCl) and equally distributed in reaction tubes. […]

Assay [2] concerns the target T1, TRIP12. The assay is described as follows: In vivo ubiquitin ligase activity assay in cells (GFP-TRIP12 and HA-ubiquitin over-expressed, immunoprecipitation). The format is cell-based. The settings on record: GFP-TRIP12 immunoprecipitated and probed for HA-ubiquitin; Fig. 16b. How it is done:
HEK293T or U-2 OS cells transfected with the indicated plasmids and siRNAs were washed twice with cold PBS and directly lysed on ice with RIPA buffer (50 mM Tris- HCI pH 8.0, 150 mM NaCl, 1% Igepal CA630, 0.1% SDS, 0.1% Na-deoxycholic acid), supplemented with 2 mM MgCl2, cOmplete inhibitor cocktail (Roche), phosphoSTOP (Roche), 25 U/ml benzonase, 1 mM phenylmethylsulfonylfluoride (PMSF), and 10 mM N-ethylmaleimide (NEM). Lysates were incubated for 5 minutes at room temperature and then centrifuged at 15'000 x g for 15 minutes. […] Beads were collected by centrifugation, washed four times with RIPA buffer and eluted by boiling in 10x SDS-PAGE sample buffer. Samples were subjected to SDS-PAGE for immunoblotting.

In the next assay the test system is cancer cells. Kind of assay: Clonogenic survival assay, Heclin combined with PARPi. The settings on record: Heclin combined with PARP inhibitor Olaparib; Fig. 16d. It is filed as cell-based. How it is done:
Cells transfected with the indicated siRNAs were seeded at single cell density and exposed to PARPi at the indicated final concentration. All conditions were performed in triplicates. Cells were then incubated for 10 days and the number of colonies with more than 50 cells was counted after staining with crystal violet (0.5% crystal violet in 20% ethanol). GraphPad Prism was used to display clonogenic survival data.

The target in the next assay is Smurf2 (Homo sapiens, UniProt Q9HAU4). Particulars: cited from earlier work.
Chain of Smurf2 (Q9HAU4 whole entry, species assumed): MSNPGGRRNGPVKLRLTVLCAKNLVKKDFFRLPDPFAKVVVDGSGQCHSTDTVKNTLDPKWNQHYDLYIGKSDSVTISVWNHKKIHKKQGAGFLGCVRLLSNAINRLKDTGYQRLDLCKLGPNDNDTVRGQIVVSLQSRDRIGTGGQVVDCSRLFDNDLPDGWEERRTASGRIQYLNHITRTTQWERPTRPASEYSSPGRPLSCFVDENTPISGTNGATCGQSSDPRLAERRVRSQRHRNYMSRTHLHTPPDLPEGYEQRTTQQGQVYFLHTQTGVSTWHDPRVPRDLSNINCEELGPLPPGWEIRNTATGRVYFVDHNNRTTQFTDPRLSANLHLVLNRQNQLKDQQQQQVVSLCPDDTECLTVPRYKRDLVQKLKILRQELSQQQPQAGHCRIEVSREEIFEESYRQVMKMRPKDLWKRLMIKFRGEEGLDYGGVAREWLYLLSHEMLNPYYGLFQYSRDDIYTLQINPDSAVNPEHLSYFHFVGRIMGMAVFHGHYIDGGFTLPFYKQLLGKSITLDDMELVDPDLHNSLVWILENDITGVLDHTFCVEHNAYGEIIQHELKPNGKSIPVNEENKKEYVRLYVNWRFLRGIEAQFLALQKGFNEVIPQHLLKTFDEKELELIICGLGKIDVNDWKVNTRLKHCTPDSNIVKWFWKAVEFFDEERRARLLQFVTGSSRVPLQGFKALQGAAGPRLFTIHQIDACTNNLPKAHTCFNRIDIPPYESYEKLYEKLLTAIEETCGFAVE
The next assay addresses T2, Nedd4 (Homo sapiens, UniProt P46934).
T2 sequence (P46934 1-1319): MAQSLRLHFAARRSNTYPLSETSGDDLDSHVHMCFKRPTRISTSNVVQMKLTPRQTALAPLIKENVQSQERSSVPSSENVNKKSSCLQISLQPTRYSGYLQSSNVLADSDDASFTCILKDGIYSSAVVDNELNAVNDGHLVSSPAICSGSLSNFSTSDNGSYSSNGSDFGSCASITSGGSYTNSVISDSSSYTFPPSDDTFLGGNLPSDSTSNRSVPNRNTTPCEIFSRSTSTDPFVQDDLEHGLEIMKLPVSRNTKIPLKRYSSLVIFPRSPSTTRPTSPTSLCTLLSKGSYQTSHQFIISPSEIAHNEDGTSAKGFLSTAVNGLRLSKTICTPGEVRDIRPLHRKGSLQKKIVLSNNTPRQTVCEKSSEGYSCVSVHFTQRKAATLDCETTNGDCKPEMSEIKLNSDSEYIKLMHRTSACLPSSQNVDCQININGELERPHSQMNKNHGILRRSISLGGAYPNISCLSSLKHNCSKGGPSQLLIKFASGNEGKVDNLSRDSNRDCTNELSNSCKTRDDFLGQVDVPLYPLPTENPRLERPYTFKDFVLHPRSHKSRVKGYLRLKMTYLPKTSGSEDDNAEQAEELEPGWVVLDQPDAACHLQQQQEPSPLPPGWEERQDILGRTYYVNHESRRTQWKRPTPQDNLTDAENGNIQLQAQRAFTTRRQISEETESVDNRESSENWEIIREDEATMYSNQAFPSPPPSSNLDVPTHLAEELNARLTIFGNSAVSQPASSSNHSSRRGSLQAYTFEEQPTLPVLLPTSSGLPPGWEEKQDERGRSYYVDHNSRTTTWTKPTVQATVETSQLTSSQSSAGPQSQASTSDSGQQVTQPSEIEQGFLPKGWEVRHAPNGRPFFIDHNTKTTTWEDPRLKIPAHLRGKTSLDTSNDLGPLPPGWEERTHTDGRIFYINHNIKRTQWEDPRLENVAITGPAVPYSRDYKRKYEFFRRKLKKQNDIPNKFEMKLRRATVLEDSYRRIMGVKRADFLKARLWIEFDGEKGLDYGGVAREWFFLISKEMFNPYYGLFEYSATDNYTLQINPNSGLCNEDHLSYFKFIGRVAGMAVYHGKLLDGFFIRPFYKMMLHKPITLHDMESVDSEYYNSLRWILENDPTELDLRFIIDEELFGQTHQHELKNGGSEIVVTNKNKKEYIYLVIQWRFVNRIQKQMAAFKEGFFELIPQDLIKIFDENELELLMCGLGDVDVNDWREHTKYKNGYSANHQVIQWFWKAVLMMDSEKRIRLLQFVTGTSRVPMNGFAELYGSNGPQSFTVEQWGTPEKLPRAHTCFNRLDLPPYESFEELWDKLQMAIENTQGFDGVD
Particulars: cited from earlier work.

In the next assay the target is WWP2 (Homo sapiens, UniProt O00308). Particulars: cited from earlier work.
Chain of WWP2 (O00308 whole entry, species assumed): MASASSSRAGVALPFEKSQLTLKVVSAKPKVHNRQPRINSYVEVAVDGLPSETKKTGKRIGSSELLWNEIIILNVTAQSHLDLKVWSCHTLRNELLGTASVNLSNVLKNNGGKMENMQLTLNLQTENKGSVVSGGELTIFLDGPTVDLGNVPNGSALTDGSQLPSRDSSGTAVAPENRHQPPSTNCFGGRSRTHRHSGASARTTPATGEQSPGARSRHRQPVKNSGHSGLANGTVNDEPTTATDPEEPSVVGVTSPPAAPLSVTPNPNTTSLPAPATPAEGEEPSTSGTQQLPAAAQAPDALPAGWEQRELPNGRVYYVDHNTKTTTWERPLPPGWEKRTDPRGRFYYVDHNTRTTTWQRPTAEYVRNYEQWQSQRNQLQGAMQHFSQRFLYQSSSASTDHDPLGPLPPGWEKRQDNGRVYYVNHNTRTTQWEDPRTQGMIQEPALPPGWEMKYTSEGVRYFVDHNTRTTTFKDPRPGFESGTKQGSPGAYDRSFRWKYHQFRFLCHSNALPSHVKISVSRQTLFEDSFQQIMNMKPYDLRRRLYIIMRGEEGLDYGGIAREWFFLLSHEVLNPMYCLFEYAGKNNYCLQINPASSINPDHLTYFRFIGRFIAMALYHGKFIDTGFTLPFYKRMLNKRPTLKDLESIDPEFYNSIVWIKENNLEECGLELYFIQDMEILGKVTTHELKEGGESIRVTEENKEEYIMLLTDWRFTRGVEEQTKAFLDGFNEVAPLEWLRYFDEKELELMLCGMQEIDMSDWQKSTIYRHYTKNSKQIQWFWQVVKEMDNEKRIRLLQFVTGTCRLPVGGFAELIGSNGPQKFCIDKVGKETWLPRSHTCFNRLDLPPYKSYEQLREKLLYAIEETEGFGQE
In a further assay the test system is PARP1. The assay is described as follows: PARP1 protein levels in treated cells (Western blot / high-content microscopy). Particulars: U-2 OS cancer cells; Fig. 16c.
In assay [3] the test system is BRCA-proficient cancer cells. The assay is described as follows: Clonogenic survival (colony formation) assay with PARPi after siRNA down-regulation of TRIP12. The format is cell-based, Human. Particulars: siRNA against TRIP12; increasing doses of PARPi; 10 days; rescued by PARP1 co-depletion; Fig. 6a-d, 12a-c. How it is done:
Human U-2 OS cells (ATCC), RPE-1 (ATCC), HEK293T (ATCC), MCF-7 (kindly provided by Ross Chapman), MDA-MB-436 (kindly provided by Michael Hottiger), U-2 OS PARP1 KO cells (kindly provided by Keith Caldecott) and HeLa Kyoto PARP1-LAP cells stably expressing EGFP-tagged PARP1 from its natural promoter (kindly provided by Stoyno S. Stoynov) were grown under standard sterile cell culture conditions (37°C, humidified atmosphere, 5% CO2) in Dulbecco's modified Eagle's medium (DMEM, Thermo Fisher Scientific) containing 10% fetal bovine serum (GIBCO) and 1% of penicillin-streptomycin antibiotics. HCC1143 cells (kindly provided by Mohamed Bentires-Alj) were grown in RPMI-1640 medium (Thermo Fisher Scientific) containing 10% fetal bovine serum (GIBCO) and 1% penicillin- streptomycin antibiotics. SUM149PT (generated by the Ethier laboratory; available at http://www.bioivt.com/ and kindly provided by Alessandro Sartori) were grown in Ham's F-12 medium (Thermo Fisher Scientific) containing 10% fetal bovine serum and 1% of penicillin-streptomycin antibiotics. All cultured cells were routinely tested for mycoplasma contamination and assessed by quantitative image-based cytometry (QIBC) for proper proliferation and absence of abnormal stress signals. […] Transfections with siRNAs were performed for 72h, unless stated otherwise, with Ambion Silencer Select siRNA using Lipofectamine RNAi/MAX (Thermo Fisher Scientific). For individual transfections the siRNAs were used at a final concentration of 25nM. When multiple siRNAs were combined, the final concentration was kept constant in all samples of an experiment. The following Ambion Silencer Select siRNAs were used: TRIP12 (s17808, s17809, s17810), PARP1 (s1098), DTX1 (s4355, s4356), DTX2 (s41519, s223231), DTX4 (s23319, s23321), HUWE1 (s19596, s19597), RNF146 (s37821, s37822). […] Cells were then incubated for 10 days and the number of colonies with more than 50 cells was counted after staining with crystal violet (0.5% crystal violet in 20% ethanol). […]

Entries after “also recorded” stand apart in the source; their conditions may differ.

T1 sequence (Q14669 with tags, fused parts or gaps): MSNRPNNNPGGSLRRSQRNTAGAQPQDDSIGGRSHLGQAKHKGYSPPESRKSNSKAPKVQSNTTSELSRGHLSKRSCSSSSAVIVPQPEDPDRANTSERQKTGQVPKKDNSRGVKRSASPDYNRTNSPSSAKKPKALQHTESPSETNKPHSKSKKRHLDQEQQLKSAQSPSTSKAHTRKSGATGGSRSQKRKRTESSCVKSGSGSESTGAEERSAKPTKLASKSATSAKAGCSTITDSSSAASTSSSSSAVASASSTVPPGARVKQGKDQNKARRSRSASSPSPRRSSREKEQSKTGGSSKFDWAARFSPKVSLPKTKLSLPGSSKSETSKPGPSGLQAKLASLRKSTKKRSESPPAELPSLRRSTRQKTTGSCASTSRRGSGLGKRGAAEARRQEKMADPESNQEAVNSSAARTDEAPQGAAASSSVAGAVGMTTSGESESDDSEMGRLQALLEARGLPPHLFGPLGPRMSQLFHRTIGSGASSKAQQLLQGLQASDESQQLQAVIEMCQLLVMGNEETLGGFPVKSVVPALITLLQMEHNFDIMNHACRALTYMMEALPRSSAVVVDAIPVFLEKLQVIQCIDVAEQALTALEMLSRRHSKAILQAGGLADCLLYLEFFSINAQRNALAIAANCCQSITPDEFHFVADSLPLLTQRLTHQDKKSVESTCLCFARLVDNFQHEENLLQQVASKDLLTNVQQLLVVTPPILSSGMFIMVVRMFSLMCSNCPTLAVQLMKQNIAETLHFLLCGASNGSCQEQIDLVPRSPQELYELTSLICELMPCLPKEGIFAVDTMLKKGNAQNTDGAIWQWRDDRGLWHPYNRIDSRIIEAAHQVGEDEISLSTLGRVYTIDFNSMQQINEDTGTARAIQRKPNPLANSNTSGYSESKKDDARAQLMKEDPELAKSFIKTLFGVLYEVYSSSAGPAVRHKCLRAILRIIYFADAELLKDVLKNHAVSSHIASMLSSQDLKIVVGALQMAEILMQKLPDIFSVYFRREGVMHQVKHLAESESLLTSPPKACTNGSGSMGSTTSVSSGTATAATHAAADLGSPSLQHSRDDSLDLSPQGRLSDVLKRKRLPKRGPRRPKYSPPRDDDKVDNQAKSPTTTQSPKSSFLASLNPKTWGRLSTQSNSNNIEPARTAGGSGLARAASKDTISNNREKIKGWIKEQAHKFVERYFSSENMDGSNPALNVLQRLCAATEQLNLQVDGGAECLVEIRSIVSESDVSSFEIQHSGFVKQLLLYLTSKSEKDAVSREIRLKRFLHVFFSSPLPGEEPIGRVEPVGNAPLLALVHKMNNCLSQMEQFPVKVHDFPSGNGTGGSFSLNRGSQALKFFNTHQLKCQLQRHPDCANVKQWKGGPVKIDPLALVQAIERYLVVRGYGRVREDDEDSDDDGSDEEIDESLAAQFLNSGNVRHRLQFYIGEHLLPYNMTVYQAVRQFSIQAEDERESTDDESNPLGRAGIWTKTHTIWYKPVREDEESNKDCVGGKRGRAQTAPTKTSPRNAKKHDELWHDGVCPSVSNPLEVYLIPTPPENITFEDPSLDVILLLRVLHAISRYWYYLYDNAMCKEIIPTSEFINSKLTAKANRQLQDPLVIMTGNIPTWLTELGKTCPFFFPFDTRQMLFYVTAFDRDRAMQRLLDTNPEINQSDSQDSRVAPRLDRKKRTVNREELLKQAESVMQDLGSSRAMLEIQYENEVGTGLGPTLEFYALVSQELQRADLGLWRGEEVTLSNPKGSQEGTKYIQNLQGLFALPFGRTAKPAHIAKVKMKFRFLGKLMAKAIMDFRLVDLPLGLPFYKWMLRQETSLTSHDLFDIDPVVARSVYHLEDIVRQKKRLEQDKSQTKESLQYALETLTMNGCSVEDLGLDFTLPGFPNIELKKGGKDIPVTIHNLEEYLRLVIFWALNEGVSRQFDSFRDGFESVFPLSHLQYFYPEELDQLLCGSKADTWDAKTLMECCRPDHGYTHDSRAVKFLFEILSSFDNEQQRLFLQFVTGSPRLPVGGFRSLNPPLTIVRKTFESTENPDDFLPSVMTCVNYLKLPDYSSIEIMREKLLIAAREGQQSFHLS
Experimental for PARP1: Images were analyzed with the inbuilt Olympus ScanR Image Analysis Software Version 3.0.1, a dynamic background correction was applied, and nuclei segmentation was performed using an integrated intensity-based object detection module based on the DAPI signal. All downstream analyses were focused on properly detected nuclei containing a 2C-4C DNA content as measured by total and mean DAPI intensities. Fluorescence intensities were quantified and are depicted as arbitrary units. Color-coded scatter plots of asynchronous cell populations were generated with Spotfire data visualization software (TIBCO) and GraphPad Prism 8.0 was used for depicting data as violin plots. Within one experiment, similar cell numbers were compared for the different conditions. […] Representative scatter plots and quantifications of independent experiments, typically containing several thousand cells each, are shown. […]

In the case of `CCc1ccc(C=CC(=O)Nc2ccc(C(C)=O)cc2)o1` [Heclin, N-(4-Acetylphenyl)-3-(5-ethyl-2-furanyl)-2-propenamide], the “TRIP12 activity in vitro” value at TRIP12 [1] is “inhibited”. For the same compound, the “TRIP12 activity in vivo” value at TRIP12 [2] is on record as “inhibited”. In the assay on cancer cells, the “sensitization of cancer cells to PARPi in clonogenic survival assays” value is reported as “synergizes with the PARP inhibitor Olaparib to kill cancer cells; also recorded: sensitized cancer cells to PARPi”. Also, the “inhibition of ubiquitin ligase Smurf2” value on Smurf2 was “inhibit”. The “inhibition of ubiquitin ligase Nedd4” value on Nedd4 was “inhibit”. Moreover, the “inhibition of ubiquitin ligase WWP2” value on WWP2 is on record as “inhibit”. Further, the “PARP1 levels upon Heclin treatment of cells” value in the assay with PARP1 is “stabilizes PARP1 in U-2 OS cancer cells in a time- and dose-dependent manner; also recorded: elevated PARP1 levels, in a time- and dose-dependent manner”.
Consider `O=C(c1cc(Cc2n[nH]c(=O)c3ccccc23)ccc1F)N1CCN(C(=O)C2CC2)CC1` [Olaparib], for which the “clonogenic survival upon PARPi exposure after TRIP12 down-regulation” value in assay [3] is listed as “greatly sensitized”.
The same measure, in the same setting: the result for `CNCc1ccc(-c2[nH]c3cc(F)cc4c3c2CCNC4=O)cc1` [Rucaparib] reads “Very similar results”.
For the compound `Cn1ncnc1[C@H]1c2n[nH]c(=O)c3cc(F)cc(c23)N[C@@H]1c1ccc(F)cc1` [Talazoparib], the “clonogenic survival upon PARPi exposure after TRIP12 down-regulation” value in assay [3] is recorded as “Very similar results”.
